Target: T1, S. aureus TrmD (Staphylococcus aureus, UniProt Q2FZ43)
T1 construct: made in house; host or cells: E. coli BL21
T1 sequence (Q2FZ43 1-245): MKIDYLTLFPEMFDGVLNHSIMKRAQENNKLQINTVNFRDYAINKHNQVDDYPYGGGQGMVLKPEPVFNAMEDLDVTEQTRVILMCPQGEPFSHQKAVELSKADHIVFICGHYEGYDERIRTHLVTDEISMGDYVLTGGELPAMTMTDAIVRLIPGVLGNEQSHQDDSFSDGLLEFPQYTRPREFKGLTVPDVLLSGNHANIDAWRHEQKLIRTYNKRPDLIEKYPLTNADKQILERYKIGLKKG
Assay: nanoSAR direct-to-biology FP displacement screening of crude triazoles
Format: binding
Settings: crude triazole at 1 μM, assuming full conversion, 500 nM TrmD, 10 nM tracer 4; for inhibition at 1 µM: read-out: % displaced tracer
Summary of the method: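 Crude CuAAC triazoles from alkyne 7 and 320 diverse azides were screened by FP displacement of 10 nM tracer 4 from 500 nM S. aureus TrmD. Buffer was 40 mM Tris HCl, 100 mM NaCl, 10 mM MgCl2, 5% glycerol, pH 7.5.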

| Structure (SMILES) | inhibition at 1 µM [%] | % displaced tracer [%] |
| --- | --- | --- |
| O=c1[nH]cnc2[nH]cc(-c3cn(Cc4ccc(-n5cccn5)cc4)nn3)c12 [Compound 02E09, O=C1NC=NC=2NC=C(C=3N=NN(C3)Cc4ccc(N5N=CC=C5)cc4)C12] | 62 |  |
| CC(C)(C)OC(=O)NC[C@@]1(Cn2cc(-c3c[nH]c4nc[nH]c(=O)c34)nn2)CC12CCC2 [Compound 02E10, O=C(OC(C)(C)C)NC[C@@]1(C2(C1)CCC2)CN3N=NC(C=4C=5C(=O)NC=NC5NC4)=C3] | 23 |  |
| C[C@@H](C(=O)N1CCCC1)n1cc(-c2c[nH]c3nc[nH]c(=O)c23)nn1 [Compound 02E11, O=C1NC=NC=2NC=C(C=3N=NN(C3)[C@H](C(=O)N4CCCC4)C)C12] | 20 |  |
| O=C(c1ncon1)n1cc(-c2c[nH]c3nc[nH]c(=O)c23)nn1 [Compound 02E12, O=C(N1N=NC(C=2C=3C(=O)NC=NC3NC2)=C1)C4=NOC=N4] | 1.83 |  |
| CC(C)(C)O[C@H]1C[C@@H](n2cc(-c3c[nH]c4nc[nH]c(=O)c34)nn2)C1 [Compound 02F01, O=C1NC=NC=2NC=C(C=3N=NN(C3)[C@@H]4C[C@H](OC(C)(C)C)C4)C12] | 21 |  |
| O=C(Cn1cc(-c2c[nH]c3nc[nH]c(=O)c23)nn1)N1CCCCC1 [Compound 02F02, O=C1NC=NC=2NC=C(C=3N=NN(C3)CC(=O)N4CCCCC4)C12] | 32 |  |
| O=c1[nH]cnc2[nH]cc(-c3cn(-c4ccccc4Cl)nn3)c12 [Compound 02F03, Clc1c(N2N=NC(C=3C=4C(=O)NC=NC4NC3)=C2)cccc1] | 22 |  |
| O=C1NC[C@@H](Cn2cc(-c3c[nH]c4nc[nH]c(=O)c34)nn2)O1 [Compound 02F04, O=C1O[C@H](CN2N=NC(C=3C=4C(=O)NC=NC4NC3)=C2)CN1] | 45 |  |
| COC(=O)c1cncc(-n2cc(-c3c[nH]c4nc[nH]c(=O)c34)nn2)c1 [Compound 02F05, O=C(OC)c1cncc(N2N=NC(C=3C=4C(=O)NC=NC4NC3)=C2)c1] | 11 |  |
| CC(C)Cn1cc(-c2c[nH]c3nc[nH]c(=O)c23)nn1 [Compound 02F06, O=C1NC=NC=2NC=C(C=3N=NN(C3)CC(C)C)C12] | 1.22 |  |
| NC(=O)c1csc(Cn2cc(-c3c[nH]c4nc[nH]c(=O)c34)nn2)n1 [Compound 02F07, S1C(=NC(C(=O)N)=C1)CN2N=NC(C=3C=4C(=O)NC=NC4NC3)=C2] | 91 |  |
| O=c1[nH]cnc2[nH]cc(-c3cn(Cc4ncoc4C4CCC4)nn3)c12 [Compound 02F08, O=C1NC=NC=2NC=C(C=3N=NN(C3)CC=4N=COC4C5CCC5)C12] | 61 |  |
| C[C@H](N)Cn1cc(-c2c[nH]c3nc[nH]c(=O)c23)nn1 [Compound 02F09, O=C1NC=NC2=C1C(C3=CN(C[C@@H](N)C)N=N3)=CN2] |  | 26 |
| O=c1[nH]cnc2[nH]cc(-c3cn(-c4cc(F)ccc4F)nn3)c12 [Compound 02F10, Fc1c(N2N=NC(C=3C=4C(=O)NC=NC4NC3)=C2)cc(F)cc1] | 15 |  |
| O=C(NCCn1cc(-c2c[nH]c3nc[nH]c(=O)c23)nn1)C(F)(F)F [Compound 02F11, FC(F)(F)C(=O)NCCN1N=NC(C=2C=3C(=O)NC=NC3NC2)=C1] | 41 |  |
| NCCOCCn1cc(-c2c[nH]c3nc[nH]c(=O)c23)nn1 [Compound 02F12, O=C1NC=NC=2NC=C(C=3N=NN(C3)CCOCC[NH3+])C12] | 39 |  |
| O=c1[nH]cnc2[nH]cc(-c3cn(CC4CCC=CCC4)nn3)c12 [Compound 02G01, O=C1NC=NC=2NC=C(C=3N=NN(C3)CC4CCC=CCC4)C12] | 71 |  |
| O=c1[nH]cnc2[nH]cc(-c3cn(-c4cccc(Cl)c4-c4nnn[nH]4)nn3)c12 [Compound 02G02, Clc1c(c(N2N=NC(C=3C=4C(=O)NC=NC4NC3)=C2)ccc1)C=5[N-]N=NN5] | 15 |  |
| O=c1[nH]cnc2[nH]cc(-c3cn(-c4ccc(CCO)cc4)nn3)c12 [Compound 02G03, O=C1NC=NC=2NC=C(C=3N=NN(c4ccc(cc4)CCO)C3)C12] | 15 |  |
| O=c1[nH]cnc2[nH]cc(-c3cn(CC4CC(F)(F)C4)nn3)c12 [Compound 02G04, F[C@@]1(F)C[C@@H](CN2N=NC(C=3C=4C(=O)NC=NC4NC3)=C2)C1] | 15 |  |

From article PMC12751012, “Nanoscale Direct-to-Biology Optimization and Structural Insights into Selective S. aureus TrmD Inhibitors” (Journal of Medicinal Chemistry, 2025)
